Assay results as given in patent US11331290B2, “Niclosamide for the treatment of cancer metastasis” (Max-Delbrück-Centrum für Molekulare Medizin in der …, priority 2011, dated 2022).

Tested on: HCT116 cells
Assay: Boyden chamber transwell migration assay
Assay type: cell-based, human
Settings: for cell migration rate, mean %: 1 μM daily for 3 days
Procedure: HCT116, SW620, LS174T, SW480 and DLD-1 cells were used in cell migration and invasion analysis performed with Boyden chamber assay. 400 μL containing 2.5×10^5 cells were seeded into each transwell chamber with filter membranes of 12.0 μm pore size (Millipore, Schwalbach, Germany). For invasion filter membranes were coated with 50 μL Matrigel (diluted 1:3 in RPMI-1640; BD Biosciences) 10 minutes before cells were seeded. Fresh medium (600 μL) were added to the bottom chamber and cells were allowed to attach to the insets for 15 hours. […] Afterwards insets were removed and cells that had migrated through the membrane to the lower chamber were trypsinized and counted in a Neubauer chamber (LO-Laboroptik, Bad Homburg, Germany). Each well was counted ten times. Each migration or invasion experiment was performed in duplicate. The average number of migrated or invaded cells was determined for at least three independent experiments.
(A) Chemical structure of niclosamide and its derivatives. In 2D illustrations the niclosamide structure was compared with the structure of niclosamide derivatives; marked in solid circles or boxes are added chemical groups, marked in grey and surrounded by dotted lines are removed chemical groups. In 3D illustrations grey clouds represent van der Waals surface, red and blue indicate negative and positive charges, respectively. (B) S100A4 expression under treated conditions. HCT116 cells were treated with 1 μM niclosamide or one of the niclosamide derivatives for 24 hours. S100A4 expression was analyzed by qRT-PCR and immunoblot. (C) Cell migration under treated conditions. HCT116 cells were treated with 1 μM niclosamide or one of its derivatives for 24 hours and cell migration was determined by Boyden chambder assay. Cells migrated to the lower chamber were counted and normalized to the number of migrated, solvent-treated HCT116 cells. Comparison of niclosamide or derivative-treated vs. solvent-treated cells was performed by two-sided one-way analysis of variance and Bonferroni post hoc multiple comparison test. Data is given as mean±SE at least four independent experiments each performed in duplicates.
For WNT pathway analysis the following cells were applied: HCT116 cells (heterozygous for gain-of-function-mutated CTNNB1; wt/mut), HAB-68mut cells (deletion mutant of HCT116, expressing only gain-of-function-mutated CTNNB1: −/mut) and HAB-92 wt cells (deletion mutant of HCT116, expressing only wild-type CTNNB1: wt/−). (A) CTNNB1 genotype dependent effect of niclosamide on LEF/TCF transcription factor reporter gene expression. Cells were treated with 1 μM niclosamide for 24 hours. Reporter gene expression was determined by luciferase activity measurement. For each condition and cell line TOPflash expression was normalized to FOPflash expression. (B) CTNNB1 genotype dependent effect of niclosamide on S100A4 expression. Cells were treated with 1 μM niclosamide for 24 hours. S100A4 expression was analyzed by qRT-PCR and immunoblot. (C) CTNNB1 genotype dependent effect of niclosamide on migration rates. Cells were treated with 1 μM niclosamide for 24 hours and cell migration was determined by Boyden chamber assay. Data represents mean±SE of at least three independent experiments. Differences were analyzed by Student's t test (n.s.; not statistically significant). (D) Nuclear localization of CTNNB1 under niclosamide treatment. Nuclear extracts of HCT116 cells treated with the indicated concentrations of niclosamide for 18 hours were analyzed by immunoblot. (E) Effect of niclosamide on CTNNB1/TCF complex. Nuclear extracts of HCT116 cells treated with the indicated concentrations of niclosamide for 18 hours were analyzed by EMSA for the TCF-binding site of the S100A4 promoter. Supershift was performed by addition of a monoclonal anti-CTNNB1 antibody. (F) Presence of CTNNB1 on the S100A4 promoter under niclosamide treatment. HCT116 cells were treated with 1 μM niclosamide for 18 hours and processed for ChIP assay. […]

With `O=C(Nc1ccc([N+](=O)[O-])cc1Cl)c1cc(Cl)ccc1O` [niclosamide, 2′,5-dichloro-4′-nitrosalicylanilide] the “cell migration rate, mean %” value (24 hours post-treatment, control 100.0%) was 18.7%, the “cell migration rate, mean %” value (48 hours post-treatment, control 100.0%) was 12.2% and the “cell migration rate, mean %” value (72 hours post-treatment, control 108.8%) was 10.4%. For the same compound, the “migration rate, mean difference control vs niclosamide” value (1 μM, 24 h (relative scale)) was 0.54, the “migration rate, mean (relative to HCT116 control)” value (1 μM, 24 h, control 1.00) was 0.45 and the “migration, mean difference control vs niclosamide” value (from here on “migration, mean difference control”) (24 hours post-treatment) was 81.3%. For the same compound, the “migration, mean difference control” value (48 hours post-treatment) was 87.8% and the “migration, mean difference control” value (72 hours post-treatment) was 98.4%.
